Assay: Human HepG2 cell viability assay in 384 well format
Format: toxicity, cell-based
Design: dose 125 nL, time 70.5 hour; concentration not given beside the values
Conditions: HepG2 cells, read-out: Inhibition

CC(C)(C)C(=O)N1CCN(Cn2nccc2-c2cccnc2)CC1
cytotoxicity at 70.5 h: -3.16%

COC(=O)N1CCCC(C(=O)N2CCCCC2)C1 (stereo not given)
cytotoxicity at 70.5 h: -4.53%

COc1cc(N2CCC3(CC2)CNC(=O)CO3)ncn1
cytotoxicity at 70.5 h: -8.43%

Cc1nn(C)c2nc(N3CCNC(=O)C3Cc3ccccc3)sc12 (stereo not given)
cytotoxicity at 70.5 h: -2.78%

CCCN1CCCC1c1nc(Cc2ccc(F)cc2)no1 (stereo not given)
cytotoxicity at 70.5 h: 15.1%

COc1ccccc1-c1noc(CN2CCCC2Cn2cccn2)n1 (stereo not given)
cytotoxicity at 70.5 h: 12.5%

CN1CCC2(C=C(C(=O)N(C)C)c3ccccc32)CC1
cytotoxicity at 70.5 h: 2.91%

CCOCCN1C[C@@H]2CCCO[C@@H]2[C@H](NC(=O)c2cnoc2C)C1
cytotoxicity at 70.5 h: -6.18%

O=C(CCSc1ccccc1)NS(=O)(=O)c1ccc2c(c1)OCCO2
cytotoxicity at 70.5 h: -6.91%

Cn1ccc2ccc(C(=O)NC3CCOC(C)(C)C3)cc21 (stereo not given)
cytotoxicity at 70.5 h: 8.55%

Cc1nc(CN2C[C@@H]3CCCO[C@@H]3[C@H](N(C)C(C)C)C2)cs1
cytotoxicity at 70.5 h: -1.04%

Cc1nnsc1C(=O)N1C[C@H]2CC[C@@H]1CN(c1cnccn1)C2
cytotoxicity at 70.5 h: -5.21%

COCCC(=O)N1CCCC(CCc2ccc(F)c(F)c2)C1 (stereo not given)
cytotoxicity at 70.5 h: -9.08%

CCS(=O)(=O)N1CCc2c(cccc2NCc2ncc[nH]2)C1
cytotoxicity at 70.5 h: -10%

CCc1nc(C)c(CN2CCCC(c3nn(C)c(=O)n3CC)C2)[nH]1 (stereo not given)
cytotoxicity at 70.5 h: -6.96%

CCOCc1cnc2n1CCN(C(=O)c1cccc3c1OCCO3)C2C (stereo not given)
cytotoxicity at 70.5 h: -5.93%

Cc1cn2c(n1)C(CNCc1ccc(C)s1)CCC2 (stereo not given)
cytotoxicity at 70.5 h: 8.09%

NC(=O)NC(=O)CCN1CCN(CC2CC2)c2ccccc21
cytotoxicity at 70.5 h: 31.2%

COc1ccccc1N1CCC(CNCc2c(C)nn(C)c2OC)C1 (stereo not given)
cytotoxicity at 70.5 h: 0.53%

CCOc1ccccc1NC(=O)CN(C)Cc1ccccc1Cl
cytotoxicity at 70.5 h: -0.249%

COCCN1C(=O)[C@H]2CC[C@@H]1CN(C(=O)COc1ccc(F)c(Cl)c1)C2
cytotoxicity at 70.5 h: -9.65%

O=C(NCC(O)c1ccc(F)c(F)c1)c1ccccc1F (stereo not given)
cytotoxicity at 70.5 h: -9.96%

O=S(=O)(Nc1cnc(N2CCCC2)nc1)c1ccc(F)cc1F
cytotoxicity at 70.5 h: -6.31%

CC(O)CN1CCN(Cc2cccc(C#N)c2)CC1 (stereo not given)
cytotoxicity at 70.5 h: -4.63%

CCc1c(C)nn(CC(=O)NC(C(=O)O)c2c(C)n[nH]c2C)c1C (stereo not given)
cytotoxicity at 70.5 h: -7.94%

CO[C@H]1CCN(S(=O)(=O)c2cn(C)cn2)[C@H]1Cc1ccncc1
cytotoxicity at 70.5 h: -0.309%

Cn1nnc2c1CCN(C(=O)CC1CC1)C2COCCN1CCCC1 (stereo not given)
cytotoxicity at 70.5 h: 8.05%

COc1ccccc1CCNC(=O)CC1(Cn2cnnn2)CCCCC1
cytotoxicity at 70.5 h: -20.4%

Nc1ncc(-c2csc(NC(=O)C[C@H]3COCCN3)n2)cn1
cytotoxicity at 70.5 h: -6.96%

Cc1nc(NC(=O)NCc2nc3cccc(C)c3n2C)oc1C
cytotoxicity at 70.5 h: 13.5%

O=C(OCc1cccs1)c1cccc(C(=O)N2CCCC2)n1
cytotoxicity at 70.5 h: -8.17%

CS(=O)(=O)c1ccccc1N[C@@H]1c2ccccc2C[C@@H]1O
cytotoxicity at 70.5 h: 21.1%

CC(CC(=O)Nc1ncn(CC(=O)NCc2ccccc2)n1)C1CC1 (stereo not given)
cytotoxicity at 70.5 h: -14.7%

c1cnc(NC[C@H]2OC[C@@H]3CCN(Cc4cccnc4)C[C@@H]32)nc1
cytotoxicity at 70.5 h: -12.6%

CCN1CCC2(CC1)CN(CCO)c1ccccc12
cytotoxicity at 70.5 h: 21.2%

O=C(c1ccco1)N1CCO[C@@H]2CN(CC3CC3)CC[C@@H]2C1
cytotoxicity at 70.5 h: 28%

CC(CNC(=O)CCCn1cncn1)N1CCc2ccccc2C1 (stereo not given)
cytotoxicity at 70.5 h: 11.6%

CC(=O)NCC1CCN(C(=O)CCOc2ccc(C(C)C)cc2)CC1
cytotoxicity at 70.5 h: -0.488%

COCC(=O)N(C)Cc1cccc(Cl)c1
cytotoxicity at 70.5 h: 38.1%

c1cnn(Cc2ccc(CN3CCC4(CCNCC4)C3)cc2)c1
cytotoxicity at 70.5 h: 2.52%

Cc1nc(CNC(=O)N2CCCC(c3ncc[nH]3)C2)sc1C (stereo not given)
cytotoxicity at 70.5 h: -5.05%

CNS(=O)(=O)c1ccc(CNC(=O)Nc2cc(C)on2)s1
cytotoxicity at 70.5 h: -6.5%

Fc1ccccc1CC1CCN(Cc2ccccn2)CC1
cytotoxicity at 70.5 h: -5.22%

N#Cc1ccccc1CC1CCCS(=O)(=O)C1 (stereo not given)
cytotoxicity at 70.5 h: 1.43%

COCc1nc2c(o1)CN(C(=O)NCc1ccccc1)C2
cytotoxicity at 70.5 h: -12.9%

Source: ChEMBL document CHEMBL3507680, “University of Dundee, Gates Library screen for HepG2 cell viability”
